These results are taken from ChEMBL document CHEMBL1201862, “PubChem BioAssay data set” (2004).

Some test systems named below: HOP-92; EKVX; SF-295; OVCAR-8; NCI-H226; HCT-15; SN12C; RXF 393; UO-31; SF-539; MDA-MB-231; A549; MDA-N; SW-620; HT-29; SK-MEL-2; OVCAR-5; NCI/ADR-RES; U-251.
Test in all cases: inhibition of tumour cell growth, NCI panel, 48 h

SMILES strings stand for the structures.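 Compound exposure: 48 hours, 5 concentrations, 96-well plates. The concentration for 50% growth inhibition is given as GI50.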 The source made the active and inactive calls. Rule as the data show it: active = GI50 up to about 1.1 µM and inactive = higher. A value given as a limit tells only on which side of the number the result lay.

Turning to `O=P1(c2ccccc2)C(c2ccccc2)CCC1c1ccccc1` (centres undefined), the GI50 with HOP-92 is 45 µM (inactive); with EKVX it was 29.5 µM (inactive); in the experiment with SF-295, 32.1 µM (inactive); with OVCAR-8 it was 91.4 µM (inactive); with NCI-H226 it was 91.8 µM (inactive); in the experiment with HCT-15, 28.8 µM. For the same compound, the GI50 with SN12C was 34.9 µM (inactive); in the experiment with RXF 393, 96.8 µM (inactive); in the experiment on UO-31, 66.1 µM (inactive); with SF-539, > 100 µM (inactive); in the experiment with MDA-MB-231 it was 42.9 µM (inactive); in the experiment on A549, 65.8 µM (inactive). Further, the GI50 in the experiment with MDA-N is 15.1 µM (inactive); with SW-620 it was 89.9 µM (inactive).
`CN(C)c1n/c(=N/Cc2cccnc2)ss1`: the GI50 with HOP-92 is > 10 µM (inactive); with EKVX it was > 10 µM (inactive); with SF-295, > 10 µM (inactive); in the experiment with OVCAR-8, > 10 µM (inactive); in the experiment on HCT-15, above 10 µM; with SN12C it was > 10 µM (inactive). The GI50 in the experiment on RXF 393, in the experiment with HT-29, in the experiment with MDA-MB-231, in the experiment with A549, in the experiment with MDA-N and in the experiment on SW-620 was > 10 µM (inactive) each time.
In the case of `CCCCCCCCCCCCCC(=O)OCC(CCS(=O)(=O)O[C@H]1CC[C@@]2(C)C(=CC[C@@H]3C2CC[C@]2(C)C(=O)CCC32)C1)OC(=O)CCCCCCCCCCCCC` (some centres undefined), the GI50 with HOP-92 is > 100 µM (inactive); in the experiment on EKVX it was > 100 µM (inactive); in the experiment with SF-295, > 100 µM (inactive); with SK-MEL-2, > 100 µM (inactive); in the experiment with OVCAR-5, > 100 µM (inactive); with HCT-15 it was above 100 µM. For the same compound, the GI50 in the experiment with SN12C, in the experiment on NCI/ADR-RES, in the experiment with RXF 393, in the experiment on HT-29, with UO-31 and in the experiment on SF-539 was > 100 µM (inactive) each time. The GI50 with U-251, with MDA-MB-231, in the experiment on A549, in the experiment with MDA-N and in the experiment on SW-620 was > 100 µM (inactive) in each case.
Regarding `COC(=O)n1c(CBr)c(Br)c2ccccc21`, the GI50 in the experiment with HOP-92 is 20.1 µM (inactive); in the experiment with SF-295, 23.7 µM (inactive); in the experiment with SK-MEL-2, 23.3 µM (inactive); in the experiment with OVCAR-8, 48.2 µM (inactive); in the experiment on OVCAR-5, 30.6 µM (inactive); with NCI-H226, 13.1 µM (inactive). The GI50 in the experiment with HCT-15 is 42.2 µM; with HT-29, 63.7 µM (inactive); in the experiment on UO-31 it was 18.2 µM (inactive); in the experiment with SF-539 it was 31.3 µM (inactive); in the experiment with U-251 it was 27 µM (inactive); with A549, 40.5 µM (inactive). Moreover, in the experiment on SW-620, the GI50 was 47.2 µM (inactive).
Consider `CCOP(=O)(OCC)OC1CC(n2cc(C)c(=O)n(C)c2=O)OC1CO[Si](C)(C)C(C)(C)C` (centres undefined), for which the GI50 with EKVX was 24.4 µM (inactive); in the experiment on SF-295, 67 µM (inactive); in the experiment on SK-MEL-2 it was > 100 µM (inactive); in the experiment with OVCAR-8, > 100 µM (inactive); in the experiment with OVCAR-5, > 100 µM (inactive); with NCI-H226 it was > 100 µM (inactive). The GI50 is above 100 µM in the experiment with HCT-15; 7.06 µM (inactive) in the experiment on SN12C; 46.5 µM (inactive) in the experiment on NCI/ADR-RES; 21.6 µM (inactive) with RXF 393; > 100 µM (inactive) with HT-29; 2.9 µM (inactive) with UO-31. The GI50 in the experiment on SF-539 was > 100 µM (inactive); with U-251, > 100 µM (inactive); with A549 it was 55.1 µM (inactive); with MDA-N, > 100 µM (inactive); in the experiment with SW-620, > 100 µM (inactive).
As to `Cc1ccc(O)c(C2=NNC(c3cccc(Br)c3)C2)c1` (centres undefined), the GI50 is 15.4 µM (inactive) with HOP-92; 35.9 µM (inactive) in the experiment on EKVX; 61 µM (inactive) with SF-295; > 100 µM (inactive) in the experiment on SK-MEL-2; 98.9 µM (inactive) in the experiment with OVCAR-8; > 100 µM (inactive) in the experiment with OVCAR-5. Moreover, the GI50 in the experiment with NCI-H226 was 71.6 µM (inactive); with HCT-15 it was 11.5 µM; with SN12C, 52.6 µM (inactive); with NCI/ADR-RES it was 48.1 µM (inactive); in the experiment with RXF 393, 56.4 µM (inactive); in the experiment on HT-29 it was 64.1 µM (inactive). For the same compound, the GI50 is 51.5 µM (inactive) in the experiment on UO-31; 74.1 µM (inactive) with SF-539; 43.7 µM (inactive) in the experiment with U-251; 44.5 µM (inactive) in the experiment with A549; 28.8 µM (inactive) in the experiment with MDA-N; 67.1 µM (inactive) in the experiment with SW-620.
Take `CC1(C)C/N=C/C(C)(OCc2ccccc2)C(=O)NC(C)(C)C/N=C/C(C)(OCc2ccccc2)C(=O)N1` (centres undefined): the GI50 in the experiment with HOP-92 was 0.0569 µM (active); in the experiment with EKVX, > 10 µM (inactive); in the experiment with SF-295, > 10 µM (inactive); in the experiment on SK-MEL-2, > 10 µM (inactive); in the experiment with OVCAR-8, > 10 µM (inactive); in the experiment on OVCAR-5 it was > 10 µM (inactive). Besides, the GI50 was > 10 µM (inactive) in the experiment with NCI-H226; above 10 µM in the experiment on HCT-15; > 10 µM (inactive) in the experiment with SN12C; > 10 µM (inactive) in the experiment with RXF 393; > 10 µM (inactive) in the experiment on HT-29; > 10 µM (inactive) with UO-31. For the same compound, the GI50 in the experiment with SF-539, in the experiment on U-251, with MDA-MB-231, with A549, with MDA-N and in the experiment on SW-620 was > 10 µM (inactive) in each case.
For the compound `O=C(NCC(C(=O)OCc1ccccc1)C(=O)OCc1ccccc1)OCc1ccccc1`, the GI50 in the experiment with HOP-92 is > 100 µM (inactive); in the experiment with EKVX it was 72.3 µM (inactive); with SF-295, > 100 µM (inactive); with SK-MEL-2, > 100 µM (inactive); in the experiment on OVCAR-8 it was > 100 µM (inactive); in the experiment on OVCAR-5, > 100 µM (inactive). Besides, the GI50 in the experiment with NCI-H226 is 50.4 µM (inactive); in the experiment with HCT-15, above 100 µM; in the experiment on SN12C it was > 100 µM (inactive); in the experiment on NCI/ADR-RES, 42.6 µM (inactive); in the experiment on RXF 393 it was 77.4 µM (inactive); in the experiment with HT-29, > 100 µM (inactive). Further, the GI50 in the experiment on UO-31 is 47.9 µM (inactive); with SF-539 it was > 100 µM (inactive); in the experiment on U-251, 85.7 µM (inactive); with A549 it was 63.8 µM (inactive); in the experiment with MDA-N it was > 100 µM (inactive); in the experiment on SW-620, > 100 µM (inactive).
As for `O=C(c1ccc(Br)cc1)n1c2ccc(Br)cc2c2nc3ccccc3nc21`, the GI50 with HOP-92, with EKVX, in the experiment on SF-295, in the experiment with SK-MEL-2, in the experiment on OVCAR-8 and in the experiment with OVCAR-5 was > 100 µM (inactive) in each case. Besides, the GI50 with NCI-H226 is > 100 µM (inactive); in the experiment on HCT-15, above 100 µM; with SN12C, > 100 µM (inactive); in the experiment with NCI/ADR-RES it was > 100 µM (inactive); in the experiment on RXF 393 it was > 100 µM (inactive); with HT-29, > 100 µM (inactive). In addition, the GI50 in the experiment on UO-31, in the experiment with SF-539, with U-251, in the experiment on MDA-N and with SW-620 was > 100 µM (inactive) in each case.
Turning to `c1ccc2nc3c(nc2c1)sc1ccccc13`, the GI50 was 16.1 µM (inactive) in the experiment on EKVX; 30.7 µM (inactive) in the experiment on SF-295; 67.5 µM (inactive) with SK-MEL-2; 60.1 µM (inactive) with OVCAR-5; 18.6 µM (inactive) with NCI-H226; 58.9 µM in the experiment with HCT-15. The GI50 was 34 µM (inactive) in the experiment with SN12C; 39.7 µM (inactive) in the experiment with NCI/ADR-RES; 39.4 µM (inactive) in the experiment on HT-29; 23.7 µM (inactive) in the experiment with UO-31; 16.4 µM (inactive) in the experiment on SF-539; 16 µM (inactive) in the experiment on U-251. Besides, the GI50 in the experiment on MDA-MB-231 was 30.5 µM (inactive); with A549 it was 16.4 µM (inactive); with SW-620, 56 µM (inactive).
For `O=C(O)CO/N=C1/C(=C2/C(=O)Nc3ccccc32)Nc2ccccc21`, the GI50 was 37.9 µM (inactive) in the experiment on HOP-92; 24.9 µM (inactive) in the experiment with EKVX; 89.9 µM (inactive) with SF-295; 25.8 µM (inactive) with SK-MEL-2; > 100 µM (inactive) in the experiment on OVCAR-8; > 100 µM (inactive) with OVCAR-5. The GI50 in the experiment with HCT-15 was 35.6 µM; in the experiment with SN12C it was 88.3 µM (inactive); in the experiment with NCI/ADR-RES it was > 100 µM (inactive); with RXF 393, 19.5 µM (inactive); in the experiment on HT-29 it was 44.5 µM (inactive); in the experiment on UO-31, 65 µM (inactive). Further, the GI50 in the experiment on SF-539 is 70.3 µM (inactive); with U-251, 82.6 µM (inactive); in the experiment with MDA-MB-231 it was 62.8 µM (inactive); in the experiment on A549, > 100 µM (inactive); in the experiment with MDA-N, 50.9 µM (inactive); in the experiment with SW-620, 62.5 µM (inactive).
With `NC(=O)c1nnn(-c2ccccc2)c1O`, the GI50 with EKVX, in the experiment with SF-295, in the experiment with SK-MEL-2, with OVCAR-8, in the experiment with OVCAR-5 and with NCI-H226 was > 100 µM (inactive) throughout. The GI50 with HCT-15 was above 100 µM; in the experiment with SN12C, > 100 µM (inactive); with NCI/ADR-RES, > 100 µM (inactive); in the experiment on RXF 393 it was > 100 µM (inactive); in the experiment on HT-29, > 100 µM (inactive); in the experiment with UO-31, > 100 µM (inactive). Further, the GI50 in the experiment with SF-539, in the experiment on U-251, with MDA-MB-231, in the experiment with A549 and in the experiment with SW-620 was > 100 µM (inactive) each time.
